Entries after “also recorded” stand apart in the source; their conditions may differ. Like-named read-outs stand apart in the source and are kept apart here.

One series concerns AQ biosynthesis. Also on record: method as in PMID 17941706. Particulars: cited from earlier work.
Series [1] has as its target T1, PqsR (Pseudomonas aeruginosa, UniProt Q9I4X0).
T1 sequence (Q9I4X0 1-332): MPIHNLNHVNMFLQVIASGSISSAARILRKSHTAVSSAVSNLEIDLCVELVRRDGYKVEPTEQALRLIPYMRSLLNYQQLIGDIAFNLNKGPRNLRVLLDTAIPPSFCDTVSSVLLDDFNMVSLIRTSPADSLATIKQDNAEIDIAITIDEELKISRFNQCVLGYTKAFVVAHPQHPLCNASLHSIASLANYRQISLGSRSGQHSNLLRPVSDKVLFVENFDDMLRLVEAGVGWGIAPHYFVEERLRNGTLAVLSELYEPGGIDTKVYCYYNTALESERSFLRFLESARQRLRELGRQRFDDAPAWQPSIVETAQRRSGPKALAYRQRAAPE
The experiment in a line: cell-based. Also on record: assayed for their agonist and antagonist activities in a whole P. aeruginosa bacterial cell assay; endogenous in cells; host or cells: P. aeruginosa PAO1 wild type, ΔpqsA or ΔpqsAH strains carrying a chromosomal (mini)CTX::pqsA'-lux fusion. Particulars: for Agonist activity on PqsR (in words): pqsA'-lux reporter.

Series [2] addresses T1, PqsR. Put plainly: cell-based. Particulars: for Antagonist activity on PqsR (in words): pqsA'-lux reporter; for IC50: Figure 6 (QZNs), P. aeruginosa wild type strain with miniCTX::pqsA'-lux fusion, read-out: Antagonist IC50±SD. Set-up: assayed for their agonist and antagonist activities in a whole P. aeruginosa bacterial cell assay; endogenous in cells; host or cells: P. aeruginosa PAO1 wild type, ΔpqsA or ΔpqsAH strains carrying a chromosomal (mini)CTX::pqsA'-lux fusion.

Series [3] concerns the target T1, PqsR. Put plainly: cell-based. Set-up: assayed for their agonist and antagonist activities in a whole P. aeruginosa bacterial cell assay; endogenous in cells; host or cells: P. aeruginosa PAO1 wild type, ΔpqsA or ΔpqsAH strains carrying a chromosomal (mini)CTX::pqsA'-lux fusion. The conditions noted are these: Figure 2 (AQs); P. aeruginosa ΔpqsAH CTX::pqsA'-lux strain; read-out: Agonist EC50 ±SD.

In a further series the target is PqsR Leu207Glu (Pseudomonas aeruginosa, UniProt Q9I4X0, L207E). Put plainly: Response of PqsR-6His ligand binding site variants to PQS and HHQ, pqsA'-lux in ΔpqsA ΔpqsH ΔpqsR strain. The conditions noted are these: Leu207Glu mutation; co-inducer 40 µM. Type of series: cell-based.
In series [4] the target is T1, PqsR. Set-up: assayed for their agonist and antagonist activities in a whole P. aeruginosa bacterial cell assay; endogenous in cells; host or cells: P. aeruginosa PAO1 wild type, ΔpqsA or ΔpqsAH strains carrying a chromosomal (mini)CTX::pqsA'-lux fusion; method as in PMID 17922753. Particulars: cited from earlier work; for Activation of PqsR (in words): dependence on alkyl chain length.

A further series relates to P. aeruginosa. The experiment in a line: Bacterial growth in the reporter assays. It counts as cell-based, Pseudomonas aeruginosa. As for the experimental part: The impact of the AQs and QZNs on PqsR-dependent gene expression in P. aeruginosa was evaluated using lux-based pqsA, lecA and phzA1 promoter fusions (Table S1) in 96-well microtiter plates as described before,[23]. Bioluminescence and bacterial growth were quantified using a combined luminometer-spectrometer (Tecan GENios Pro). Where required, AQs or QZNs were added to reporter strains and EC50 or IC50 values were extracted from the sigmoidal dose–response curves obtained using Prism2 (Graphpad, San Diego, USA).

For series [5] the following is noted: MeOH stock at a workable concentration.
Where [6] appears, read: Figure 2 (AQs), P. aeruginosa ΔpqsA CTX::pqsA'-lux strain, read-out: Agonist EC50 ±SD.
[7] abbreviates: Figure 6 (QZNs), P. aeruginosa ΔpqsA miniCTX::pqsA'-lux strain, read-out: Agonist EC50±SD.

For `Nc1cc(Cl)ccc1C(=O)O` [4-CABA, 2-amino-4-chorobenzoic acid], in the series on AQ biosynthesis, the “Concentrations required to inhibit AQ production” value is listed as “millimolar range”.
In the case of `CCCCCCCc1[nH]c2ccccc2c(=O)c1N` [5a], the EC50 on PqsR [1] (setting [6]) came to 0.4 ± 0.15 µM.
On to `CCCCCCCCCc1nc2cc(F)ccc2c(=O)[nH]1` [7F-C9-QZN], for which the “Agonist activity on PqsR (in words)” value on PqsR [1] is “devoid of agonist or antagonist activity”; on PqsR [1] (listed as 8), “partial agonists”. In addition, on PqsR [2], the “Antagonist activity on PqsR (in words)” value was “devoid of agonist or antagonist activity”.
For `CCCCCCCc1nc2ccccc2c(=O)[nH]1` [C7-QZN], the “Agonist activity on PqsR (in words)” value on PqsR [1] is recorded as “devoid of agonist or antagonist activity”. Moreover, the “Antagonist activity on PqsR (in words)” value on PqsR [2] is given as “devoid of agonist or antagonist activity”.
In the case of `CCCCCCCCCc1nc2ccccc2c(=O)[nH]1` [C9-QZN], at PqsR [1], the “Agonist activity on PqsR (in words)” value is recorded as “devoid of agonist or antagonist activity”. In addition, the “Antagonist activity on PqsR (in words)” value on PqsR [2] was “devoid of agonist or antagonist activity”.
Regarding `CCCCCCCc1cc(O)c2ccccc2n1` [compound 2, 2-heptyl-4-hydroxyquinoline], the EC50 at PqsR [3] turned out to be 16.4 ± 2.6 µM; at PqsR [1] (setting [6]) it was 0.8 ± 0.3 µM. The “Response, % of pqsA promoter activity with respect to strain expressing PqsR-6His” value at PqsR Leu207Glu turned out to be 5%. The “EC50 for PqsR-dependent activation of pqsA” value at PqsR [4] (whole P. aeruginosa cell assays) was “low micromolar range”.
In the case of `CCCCCCCCCc1cc(O)c2ccccc2n1` [compound 3, 2-nonyl-4-hydroxyquinoline], the EC50 was 2.5 ± 1.5 µM on PqsR [3] and 0.4 ± 0.1 µM on PqsR [1] (setting [6]). For the same molecule, on PqsR [4], the “Activation of PqsR (in words)” value is “highly active”.
On to `CCCCCCCCCc1[nH]c2ccccc2c(=O)c1O` [compound 4, 2-nonyl-3-hydroxy-4(1H)-quinolone], for which the EC50 on PqsR [3] was found to be 9.1 ± 11.2 µM; on PqsR [1] (setting [6]) it was 1.1 ± 0.5 µM. Moreover, the “Activation of PqsR (in words)” value on PqsR [4] is listed as “highly active”.
Regarding `CCCCCCCc1[nH]c2cc(Cl)ccc2c(=O)c1O` [compound 5], the EC50 at PqsR [1] (setting [6]) was 0.014 ± 0.005 µM. Also, the “Agonist potency relative to PQS” value on PqsR [1] (in P. aeruginosa, from Figure 2 EC50s) is on record as about 135 times.
As to `CCCCCCCc1nc2ccccc2c(=O)n1O` [compound 9], the half-maximal effective concentration (EC50) on PqsR [1] (setting [7]) was determined as 54 ± 6.6 µM. In addition, the “Agonist activity on PqsR (in words)” value on PqsR [1] is “partial agonists”.
In the case of `CCCCCCCCCc1nc2ccccc2c(=O)n1O` [compound 10], the EC50 on PqsR [1] (setting [7]) was 30 ± 3.8 µM.
Still for that read-out and setting: as for `CCCCCCCCCc1nc2cc(Cl)ccc2c(=O)n1O` [compound 11], the figure is 12.7 ± 7.8 µM.
Regarding `CCCCCCCCCc1nc2cc(F)ccc2c(=O)n1O` [compound 12], the EC50 on PqsR [1] (setting [7]) was 21 ± 5.5 µM. Moreover, the “Agonist activity on PqsR (in words)” value on PqsR [1] is given as “totally devoid of agonist activity”.
Consider `CCCCCCCc1nc2ccccc2c(=O)n1OC` [compound 13], for which the “Agonist activity on PqsR (in words)” value at PqsR [1] was “inactive; also recorded: totally devoid of agonist activity”.
On the same count and under the same terms, as for `CCCCCCCCCc1nc2ccccc2c(=O)n1OC` [compound 14], the entry is “inactive”.
Take `CCCCCCCCCc1nc2cc(Cl)ccc2c(=O)n1OC` [compound 15]: on PqsR [1] (setting [7]), the EC50 is 37.3 ± 6.5 µM.
The same measure, in the same setting: in the case of `CCCCCCCCCc1nc2cc(F)ccc2c(=O)n1OC` [compound 16] it was 2.2 µM.
As for `CCCCCCCCCc1nc2cc(F)c(F)cc2c(=O)n1OC` [compound 17], the concentration giving a half-maximal response (EC50) at PqsR [1] (setting [7]) turned out to be 53.6 ± 13.7 µM. Further, on PqsR [1] (second fluorine introduced), the “Reduction of agonist potency relative to 3-OMe-7F-C9-QZN” value is about 25 fold.
Regarding `CCCCCCCc1nc2ccccc2c(=O)n1N` [compound 19], the “Agonist activity on PqsR (in words)” value on PqsR [1] is “None of these compounds were agonists”. Further, on PqsR [2], the IC50 came out at 54 ± 15.5 µM.
Consider `CCCCCCCCCc1nc2ccccc2c(=O)n1N` [compound 20], for which the “Agonist activity on PqsR (in words)” value on PqsR [1] is recorded as “None of these compounds were agonists”. Besides, the IC50 at PqsR [2] was 77.2 ± 1 µM.
On the same counts, the results for `CCCCCCCCCCCc1nc2ccccc2c(=O)n1N` [compound 21] are “None of these compounds were agonists” and 210 ± 77 µM.
`CCCCCCCCCc1nc2ccc(Cl)cc2c(=O)n1N` [compound 22]: the “Antagonist activity on PqsR (in words)” value at PqsR [2] was “complete loss of antagonist activity”.
Regarding `CCCCCCCCCc1nc2cc(F)ccc2c(=O)n1N` [compound 25], the IC50 on PqsR [2] stood at 3.9 ± 1.5 µM.
Take `CCCCCCCCCc1nc2cc(F)c(F)cc2c(=O)n1N` [compound 26]: the IC50 at PqsR [2] is 1.2 ± 0.4 µM.
Regarding `CCCCCCCCCc1nc2cc(C(F)(F)F)ccc2c(=O)n1N` [compound 27], at PqsR [2], the “Antagonist activity on PqsR (in words)” value is “complete loss of activity”.
The same measure, in the same setting: as for `CCCCCCCCCc1nc2cc(OC)c(OC)cc2c(=O)n1N` [compound 28], the entry is “inactive”.
With `CCCCCC(C)CCc1nc2ccccc2c(=O)n1N` (stereo not shown) [compound 29], the “Antagonist activity on PqsR (in words)” value on PqsR [2] was “all inactive”.
On the same count and under the same terms, as for `CC(C)CCCCCCc1nc2ccccc2c(=O)n1N` [compound 30], the entry is “all inactive”.
Same read-out and setting: as for `CCCCOCCOCc1nc2ccccc2c(=O)n1N` [compound 32], the entry is “all inactive”; as for `CCCCCCCCCc1nc2ccccc2c(=O)n1NC(C)=O` [compound 33], “inactive or weak antagonists”.
On to `CCCCCCCCCc1nc2ccccc2c(=O)n1CCN` [compound 35], for which the melting point lay within 77 to 81 °C. Further, the Growth inhibition result in the series with P. aeruginosa was “exhibited growth inhibition”. The “Antagonist activity on PqsR (in words)” value on PqsR [2] is “inactive or weak antagonists”.
For the molecule `CCCCCCCCCc1nc2ccc(Cl)cc2c(=O)n1CCN` [compound 36], the melting point was in the range of 72 to 74 °C. The Growth inhibition result in the series on P. aeruginosa is “exhibited growth inhibition”.
In the same order, the values of `CCCCCCCCCc1nc2cc(Cl)ccc2c(=O)n1CCN` [compound 37] are 69 to 72 °C and “exhibited growth inhibition”.
For the molecule `CCCCCCCCCc1nc2cc(Cl)ccc2c(=O)n1CCCN` [compound 38], the melting point is 82 to 95 °C. The Growth inhibition result in the series with P. aeruginosa is reported as “exhibited growth inhibition”.
On to `NCCn1c(CCCc2ccccc2)nc2cc(Cl)ccc2c1=O` [compound 39], for which, in the series on P. aeruginosa, the Growth inhibition entry is reported as “exhibited growth inhibition”. Further, the IC50 on PqsR [2] was found to be 79.2 ± 2.7 µM.
On to `Nn1c(CCCc2ccccc2)nc2cc(Cl)ccc2c1=O` [compound 41], for which, on PqsR [2], the IC50 is 39.6 ± 11 µM.
Consider `Nn1c(CCc2c[nH]c3ccccc23)nc2cc(Cl)ccc2c1=O` [compound 43], for which, in [5], the “Solubility (in words)” value was “did not dissolve in MeOH at a workable concentration”.
As for `Nn1c(Cc2ccc(-c3ccccc3)cc2)nc2cc(Cl)ccc2c1=O` [compound 44], in series [5], the “Solubility (in words)” value is given as “did not dissolve in MeOH at a workable concentration”.
On the same count and under the same terms, in the case of `Nn1c(CCCC2CCCCC2)nc2ccccc2c1=O` [compound 46] it was “barely soluble”.
Take `CCCCCCCCCc1nc2ncccc2c(=O)n1N` [compound 47]: at PqsR [2], the “Antagonist activity on PqsR (in words)” value is recorded as “complete loss of activity”.

One may read the EC50 as the midpoint of the concentration-response curve. Broadly, the IC50 is the point on the concentration scale where inhibition reaches its midpoint. The melting point is the temperature of the solid-liquid transition.

The values above are taken from article PMC3723537, “Structural Basis for Native Agonist and Synthetic Inhibitor Recognition by the Pseudomonas aeruginosa Quorum Sensing Regulator PqsR (MvfR)” (PLoS Pathogens, 2013).
